Assay results from patent EP1285918A1, “C7 Ester substituted taxanes as antitumor agents” (Florida State University Research Foundation, Inc., priority 2001, dated 2003).
Like-named read-outs stand apart in the source and are kept apart here.

Tests used:
HCT116 = test: In Vitro cytotoxicity measured by the cell colony formation assay; format: cell-based; conditions: Homo sapiens, HCT-116; 72 h drug incubation, colonies counted after 7 days; concentration producing 50% inhibition of colony formation; read-out: IN VITRO ID 50 (nm) HCT116
[1] = tested on: A2780 Human Ovarian Carcinoma Xenografts; conditions: for MDS (n) / Complete Response / Partial Response / Stable Disease / Survivors / Toxic Deaths / Mean Score: i.v. qd x 1 (mg/kg: Taxol 24, 1351 75.3, 1401 107.6, 1418 107.6, Taxotere 70); for MDS (n): 2.0 g cut-off; for MDS (n) / Complete Response / Partial Response / Stable Disease / Survivors / Toxic Deaths: Day 60; for Mean Score: tumor score 1 to 10, group mean; for survival extension compared to Group 1 controls: i.v. qd x 1 (mg/kg: Taxol 24, 1418 107.6, Taxotere 70)
Description: Other antitumor compounds were similarly formulated. […] The dosing volume was 0.3 ml per 20 g mouse.
Female NCr-nude mice (implanted subcutaneously with 1 mm^3 A2780 ovarian carcinoma fragments in the flank) were sorted into treatment groups of five mice each, except for the Taxotere treatment group including six mice. […] Dosing was initiated on Day 1. The antitumor compounds were given i.v. at an estimated maximum tolerated dose (MTD) appropriate for each agent on a qd x 1 schedule (single administration of compound). […] Taxotere was given i.v. on a qd x 1 schedule at a dose of 70 mg/kg. The vehicle was administered i.v. to control mice in Group 1 on the qd x 1 schedule. Treatment groups are detailed in Table 7. The study was terminated on Day 60.
The results are summarized in Table 8 and include mean days of survival (MDS), number of toxic deaths, number of survivors, number of complete or partial responses, and number with stable disease. The mean days of survival is the number of days after which a neoplasm reached a size of 2.0 g and the animal was euthanized. A complete response is obtained if the tumor is not palpable at the end of the study. A partial response is obtained if the tumor shrinks to a size smaller than its size on Day 1 of the study.

[2] = tested on: HCT116 human colon carcinoma xenograft; conditions: for Partial Responses / Stable Disease / Toxic Deaths / Complete Responses / Survivors: 10 mice/group, study end Day 60; for long term survivors at the end of the experiment: HCT116, i.v. and oral groups together (out of thirty), Day 60
Excerpt: Six groups consisting of ten mice in each group were made up of female Nu/Nu mice (8-9 weeks of age; implanted with 1 mm^3 HCT116 human […] carcinoma fragments in the flank). Another six groups consisting of ten mice in each group were made up of male Nu/Nu mice (6-7 weeks of age; implanted with 1 mm^3 HCT116 human […] carcinoma fragments in the flank). […] The study was terminated on Day 60.
The results are summarized in Table 19 for the female mice and Table 20 for the male mice. Included are mean days of survival (MDS), number of toxic deaths, number of survivors, number of complete or partial responses, and number with stable disease. The mean days of survival is the number of days after which an […] neoplasm reached a size of 1.5 g and the animal was euthanized. A complete response is obtained if the tumor is not palpable at the end of the study. A partial response is obtained if the tumor shrinks to a size smaller than its size on Day 1 of the study. […]

[3] = tested on: MX-1 Human Breast Carcinoma Xenograft; conditions: i.v. qd x 1 (Taxol 36 mg/kg split dose, 1393 72.6 mg/kg)
Description: Antitumor compounds were formulated for an i.v. dosing regime (single i.v. bolus on qd x 1 schedule) prepared in the following vehicle: 5% ethanol, 5% Cremophor and 90% isotonic saline. […] Other compounds were similarly formulated. […] The dosing volume was 0.3 ml per 20 g mouse.
All vehicle control animals in the split dosing regimes were dosed twice intravenously with half the total volume being given separated by one hour. The study was terminated on Day 60.
(§1) The mean days of survival is the number of days after which a neoplasm reached a size of 2.0 g and the animal was euthanized. A complete response is obtained if the tumor is not palpable at the end of the study. A partial response is obtained if the tumor shrinks to a size smaller than its size on Day 1 of the study. […]

[4] = tested on: SKMES Human Lung Carcinoma Xenograft
Description: Antitumor compounds were formulated for oral administration over a wide dose range in a study to investigate the efficacy of this compound against the SKMES human lung cancer xenograft. The antitumor compounds were prepared in the following vehicle: 5% ethanol, 5% Cremophor and 90% isotonic saline.
Female Nu/Nu mice (6-8 weeks of age; implanted with 1 mm^3 SKMES lung carcinoma fragments in the flank) were sorted into treatment groups of six mice each. SKMES size ranges and group mean SKMES size ranges were 126-448 mg and 238-241 mg, respectively. […] Treatments were administered as a single oral bolus on Day 1, and the study was terminated on Day 60.
as §1, with “which a SKMES neoplasm reached” for “which a neoplasm reached”

[5] = female mice, 104 mg/kg i.v. in 5% ethanol and 95% Liposyn II (Group 4)
[6] = female mice, 104 mg/kg i.v. in 5% ethanol and 95% Liposyn III (Group 5)
[7] = female mice, 104 mg/kg oral in 5% ethanol, 5% Cremophor and 90% isotonic saline (Group 6)
[8] = male mice, 73 mg/kg i.v. in 5% ethanol and 95% Liposyn II (Group 4)
[9] = male mice, 73 mg/kg i.v. in 5% ethanol and 95% Liposyn III (Group 5)
[10] = male mice, 73 mg/kg oral in 5% ethanol, 5% Cremophor and 90% isotonic saline (Group 6)
[11] = 5.2 mg/kg single oral bolus Day 1, 6 mice/group, study end Day 60
[12] = 10.4 mg/kg single oral bolus Day 1, 6 mice/group, study end Day 60
[13] = 20.8 mg/kg single oral bolus Day 1, 6 mice/group, study end Day 60
[14] = 42 mg/kg single oral bolus Day 1, 6 mice/group, study end Day 60
[15] = 73 mg/kg single oral bolus Day 1, 6 mice/group, study end Day 60
[16] = 104 mg/kg single oral bolus Day 1, 6 mice/group, study end Day 60
[17] = SKMES, 1418 single oral bolus 90 mg/kg (Group 4), 6 mice, Day 60

CCC(=O)O[C@H]1C[C@H]2OC[C@@]2(OC(C)=O)[C@H]2[C@H](OC(=O)c3ccccc3)[C@]3(O)C[C@H](OC(=O)[C@H](O)[C@H](C=C(C)C)NC(=O)OC(C)(C)C)C(C)=C([C@@H](O)C(=O)[C@]12C)C3(C)C [Compound 1351]
IC50 (HCT116): < 1 nM
total response rate ([1]; 1351 75.3 mg/kg i.v. qd x 1): at least 20%
MDS (n) [1]: 23.0 ± 1.7 (4) days
Complete Response [1]: 0
Partial Response [1]: 1
Stable Disease [1]: 0
Survivors [1]: 1
Toxic Deaths [1]: 0
Mean Score [1]: 3.6 ± 1.1

CCC(=O)O[C@H]1C[C@H]2OC[C@@]2(OC(C)=O)[C@H]2[C@H](OC(=O)c3ccccc3)[C@]3(O)C[C@H](OC(=O)[C@H](O)[C@@H](NC(=O)OC(C)(C)C)c4ccco4)C(C)=C([C@@H](O)C(=O)[C@]12C)C3(C)C [Compound 1393, 3'-Desphenyl-3'-(2-furyl)-7-propionyl taxotere]
Partial Responses [2, 5]: 3
Stable Disease [2, 5]: 2
Toxic Deaths [2, 5]: 0
Complete Responses [2, 6]: 5
Partial Responses [2, 6]: 3
Stable Disease [2, 6]: 2
Toxic Deaths [2, 6]: 0
Complete Responses [2, 7]: 4
Partial Responses [2, 7]: 3
Stable Disease [2, 7]: 2
Toxic Deaths [2, 7]: 0
Complete Responses [2, 8]: 7
Partial Responses [2, 8]: 1
Stable Disease [2, 8]: 2
Toxic Deaths [2, 8]: 0
Complete Responses [2, 9]: 6
Partial Responses [2, 9]: 0
Stable Disease [2, 9]: 2
Toxic Deaths ([2]; male mice, 73 mg/kg i.v. in 5% ethanol and 95% Liposyn III (Group 5), footnote: one death due to an unknown reason): 2^a
Complete Responses [2, 10]: 6
Partial Responses [2, 10]: 3
Stable Disease [2, 10]: 1
Toxic Deaths [2, 10]: 0
Partial Response ([3]; 6 mice/group, Day 60): 1
Stable Disease ([3]; 6 mice/group, Day 60): 0
Mean Score ([3]; tumor score 1 to 10, group mean): 9.8 ± 0.2
Toxic Deaths [4, 11]: 0
Toxic Deaths [4, 12]: 0
Toxic Deaths [4, 13]: 0
Toxic Deaths [4, 14]: 0
MDS (n) ([4]; 42 mg/kg single oral bolus Day 1, 6 mice/group, study end Day 60, days until tumor reached 2.0 g): 23.2 ± 4.8 (4) days
% Total Response [4, 15]: 83.3%
Toxic Deaths [4, 15]: 0
% Total Response [4, 16]: 83.3%
Toxic Deaths [4, 16]: 0
MDS ([4]; SKMES, 1393 single oral bolus 42 mg/kg (Group 7), 2.0 g cut-off): 23.2 days

CCC(=O)O[C@H]1C[C@H]2OC[C@@]2(OC(C)=O)[C@H]2[C@H](OC(=O)c3ccccc3)[C@]3(O)C[C@H](OC(=O)[C@H](O)[C@@H](NC(=O)OC(C)(C)C)c4ccoc4)C(C)=C([C@@H](O)C(=O)[C@]12C)C3(C)C [Compound 1401]
IC50 (HCT116): < 1 nM
MDS (n) [1]: 32.1 ± 3.9 (4) days
Complete Response [1]: 0
Partial Response [1]: 0
Stable Disease [1]: 1
Survivors [1]: 1
Toxic Deaths [1]: 0
Mean Score [1]: 3.4 ± 0.4

CCC(=O)OC1CC2OCC2(OC(C)=O)C2C(OC(=O)c3ccccc3)C3(O)CC(OC(=O)C(O)C(NC(=O)OC(C)(C)C)c4ccco4)C(C)=C(C(O)C(=O)C12C)C3(C)C (stereo not drawn) [Compound 1393, 3'-Desphenyl-3'-(2-furyl)-7-propionyl taxotere]
long term survivors at the end of the experiment ([2]; female mice, 1393 104 mg/kg): twenty-eight
long term survivors at the end of the experiment ([2]; male mice, 1393 73 mg/kg): Twenty-nine
Survivors [2, 5]: 10
Survivors [2, 6]: 10
Survivors [2, 7]: 9
Survivors [2, 8]: 10
Survivors [2, 9]: 8
Survivors [2, 10]: 10
Survivors ([3]; 6 mice/group, Day 60): 6
Survivors [4, 11]: 1
Survivors [4, 12]: 1
Survivors [4, 13]: 0
Survivors [4, 14]: 2
Survivors [4, 15]: 5
Survivors [4, 16]: 6

CC(=O)O[C@@]12CO[C@@H]1C[C@H](O)[C@@]1(C)C(=O)[C@H](O)C3=C(C)[C@@H](OC(=O)[C@H](O)[C@@H](NC(=O)OC(C)(C)C)c4ccccc4)C[C@@](O)([C@@H](OC(=O)c4ccccc4)[C@H]21)C3(C)C [docetaxel, reference compound]
IC50 (HCT116): 0.6 nM
MDS (n) [1]: 27.4 ± 3.5 (5) days
Complete Response [1]: 0
Partial Response [1]: 0
Stable Disease [1]: 0
Survivors [1]: 0
Toxic Deaths [1]: 0
Mean Score [1]: 2.5 ± 0.3
survival extension compared to Group 1 controls [1]: 134%

CCC(=O)O[C@H]1C[C@H]2OC[C@@]2(OC(C)=O)[C@H]2[C@H](OC(=O)c3ccccc3)[C@]3(O)C[C@H](OC(=O)[C@H](O)[C@@H](NC(=O)OC(C)(C)C)c4cccs4)C(C)=C([C@@H](O)C(=O)[C@]12C)C3(C)C [Compound 1418]
IC50 (HCT116): < 1 nM
MDS (n) [1]: 32.0 ± 2.3 (5) days
Complete Response [1]: 0
Partial Response [1]: 0
Stable Disease [1]: 0
Survivors [1]: 0
Toxic Deaths [1]: 0
Mean Score [1]: 3 ± 0
survival extension compared to Group 1 controls [1]: approximately 300%
Toxic Deaths ([4]; 90 mg/kg single oral bolus Day 1, 6 mice/group, study end Day 60): 0
total response rate ([4]; SKMES, 1418 single oral bolus 90 mg/kg (Group 4)): 100%
Complete Responses [4, 17]: four
Partial Responses [4, 17]: two
% Total Response ([4]; po, 90 mg/kg): 100%
Complete Responses ([4]; po, 90 mg/kg): 4
Partial Responses ([4]; po, 90 mg/kg): 2
